As a reminder, the IC50 is the midpoint of a concentration-inhibition curve. Usually EC50 stands for the concentration needed to bring the measured effect to its halfway point.

These results are taken from patent US20230149409A1, “TREATMENT OF HUMAN PAPILLOMAVIRUS-ASSOCIATED CANCERS BY PD-L1 INHIBITORS” (priority 2021, published 2023).

The target in experiment [1] is T1, PD-⅟PD-L1 (recombinant human PD-L1 protein and human PD-1 protein) (Homo sapiens, UniProt Q9NZQ7).
T1 construct: Recombinant human PD-L1 protein (19-238) with a His-tag at the C-terminus; purchased AcroBiosystems PD1-H5229 (PD-L1); PD1-H5257 (PD-1)
Put plainly: Homogeneous Time-Resolved Fluorescence (HTRF) PD-1/PD-L1 binding assay. Particulars: 3 nM PD1, 10 nM PD-L1, 25° C., PBS pH 7.4. The protocol: Homogeneous Time-Resolved Fluorescence (HTRF) PD-⅟PD-L1 Binding Assay
The assays were conducted in a standard black 384-well polystyrene plate with a final volume of 20 uL. Inhibitors were first serially diluted in DMSO and then added to the plate wells before the addition of other reaction components. The final concentration of DMSO in the assay was 1%. The assays were carried out at 25° C. in the PBS buffer (pH 7.4) with 0.05% Tween-20 and 0.1% BSA. […] PD-L1 and PD-1 proteins were diluted in the assay buffer and 10 uL was added to the plate well. Plates were centrifuged and proteins were preincubated with inhibitors for 40 minutes. The incubation was followed by the addition of 10 uL of HTRF detection buffer supplemented with Europium cryptate-labeled anti-human IgG (PerkinElmer-AD0212) specific for Fc and anti-His antibody conjugated to SureLight®-Allophycocyanin (APC, PerkinElmer-AD0059H). […] Final concentrations in the assay were - 3 nM PD1, 10 nM PD-L1, 1 nM europium anti-human IgG and 20 nM anti-His-Allophycocyanin. IC50 determination was performed by fitting the curve of percent control activity versus the log of the inhibitor concentration using the GraphPad Prism 5.0 software.

Experiment [2] concerns PD-L1 (U2OS/PD-L1 cells, Jurkat-PD-1-SHP cells). In words: Src Homology Region 2 Domain-containing Phosphatase (SHP) assay. Type of experiment: cell-based. Particulars: Homo sapiens; U2OS/PD-L1 + Jurkat-PD-1-SHP cells, 2 hours. The protocol:
Example 1B. Src Homology Region 2 Domain-containing Phosphatase (SHP) Assay
U2OS/PD-L1 cells (DiscoveRx Corporation) were maintained in McCoy’s 5A medium with addition of 10% FBS, 0.25 µg/mL Puromycin. After removing the culture media, the cell medium was replaced with assay medium (RPMI1640 medium with 1% FBS). The U2OS/PD-L1 cells were then added in 384-well black clear bottom assay plate (CELLCOAT® Tissue Culture Plates, Greiner Bio-One) at 5000 cells per well in 20 uL assay medium. Test compounds were prepared by serial dilution in DMSO and 125 nL compound were first transferred to the 384 REMP plate well (Thermofisher) by ECHO liquid handler (Labcyte) followed with addition of 27.5 uL assay medium. 5 µL/well compounds in the assay medium were transferred to the cell plate with 0.05% DMSO in the final assay at 0.25 µM. Jurkat-PD-1-SHP cells (DiscoveRx Corporation) were cultured in RPMI1640 medium supplemented with 10% FBS, 250 µg/mL Hygromycin B, 500 µg/mL G418. After the replacement of culture media with assay medium, 5,000 Jurkat-PD-1-SHP cells in 20 µL were dispensed into each well. The assay plate was incubated at 37° C., 5% CO2 for 2 hours before 2.5 uL PathHunter reagent 1 (DiscoveRx Corporation) were added to each well. The assay plate was shaken for 1 min at 350 rpm in the dark followed with addition of 10 uL PathHunter reagent 2 (DiscoveRx Corporation). Chemiluminescent signal was recorded with TopCount reader (Perkin Elmer) after incubation at room temperature for 1 hour. Wells with DMSO were served as the positive controls and wells containing no cells were used as negative controls. IC50 determination was performed by fitting the curve of percentage of control activity versus the log of the compound concentration using the GraphPad Prism 6.0 software.

In experiment [3] the test system is PD-L1 (PD-L1 aAPC/CHO-K1 cells, Jurkat-PD-1-NFAT effector cells). In words: Nuclear Factor of Activated T-cells (NFAT) assay. The experiment is classed as cell-based. The following applies: Cricetulus griseus; PD-L1 aAPC/CHO-K1 + Jurkat-PD-1-NFAT cells, 24 hours. The protocol:
Nuclear Factor of Activated T-cells (NFAT) Assay
PD-L1 aAPC/CHO-K1cells (Promega) were maintained in F-12 medium with addition of 10% FBS, 200 µg/mL Hygromycin B, 250 µg/mL Geneticin (G418). […] The culture media of PD-L1 aAPC/CHO-K1 cells were first replaced with assay medium (RPMI1640 medium with 1% FBS). The PD-L1 aAPC/CHO-K1cells were then added in a white 384-well white clear bottom assay plate (CELLCOAT® Tissue Culture Plates, Greiner Bio-One) at 8000 per well in 10 uL assay medium. […] 5 uL compounds in the assay medium were transferred to the cells with 0.4% DMSO in the final assay at 2 µM. After removing the culture media, 10,000 Jurkat-PD-1-NFAT effector cells in 5 µL assay medium was dispensed into each well. The assay plate was incubated at 37° C., 5% CO2 for 24 hours. […] After 8 minutes incubation at room temperature, luminescence was read at with Pherastar microplate reader (BMG Labtech). The fold of induction (FOI) was calculated based on the ratio of luminescence normalized to the DMSO wells within each assay plate. The maximum percentage of induction was reported based on the ratio between the highest FOI of each compound and the maximum FOI of control compound within each assay plate. Wells with DMSO were served as the negative controls and wells containing control compound with the highest FOI were used as positive controls. EC50 determination was performed by fitting the curve of percent control activity versus the log of the compound concentration using the GraphPad Prism 6.0 software.

Experiment [4] addresses T2, PD-L1 on CD14+ cells in human whole blood (Homo sapiens, UniProt Q9NZQ7).
T2 construct: Cells were gated on CD14+ (BD Biosciences) and PD-L1 expression determined by mean fluorescence intensity; host or cells: CD14+ cells in normal human whole blood, stimulated with human interferon gamma
Put plainly: PD-L1 whole blood internalization assay. The experiment is classed as cell-based. Particulars: 1 ng/mL interferon γ, CD14+ gated, 24 hour. The protocol:
PD-L1 Whole Blood Internalization Assay
To determine PD-L1 internalization in human whole blood, normal human blood (Biological Specialty Corp, Colmar. PA) was incubated in the presence or absence of a concentration range of test compounds and 1 ng/mL human interferon γ (R&D Systems Inc. Minn. MN) in a 96 well “2 mL Assay Block” (Corning, Corning NY) for 18-20 hours at 37 °C. Blood was then stained with PD-L1 (MIH1, eBioscience; or BD Biosciences San Jose, CA), CD14 (Life Technologies, Carlsbad, CA) for 30 minutes in the dark at room temperature. Whole Blood/red cells were lysed/fixed (lysis buffer BD Biosciences) for 5 minutes at 37 °C in the dark and then centrifuged at 1600 RPM for 5 minutes. Cells were resuspended in Stain Buffer (BD Bioscience, San Jose, CA) and transferred into 96 well round bottom plates (Coming). Cells were gated on CD14+ (BD Biosciences) and PD-L1 expression determined by mean fluorescence intensity (MFI) (BD LSRFortessa® X-20). IC50 determination was performed by fitting the curve of compound percent inhibition versus the log of the compound concentration using the GraphPad Prism 7.0 software.

T2 sequence (Q9NZQ7 19-290): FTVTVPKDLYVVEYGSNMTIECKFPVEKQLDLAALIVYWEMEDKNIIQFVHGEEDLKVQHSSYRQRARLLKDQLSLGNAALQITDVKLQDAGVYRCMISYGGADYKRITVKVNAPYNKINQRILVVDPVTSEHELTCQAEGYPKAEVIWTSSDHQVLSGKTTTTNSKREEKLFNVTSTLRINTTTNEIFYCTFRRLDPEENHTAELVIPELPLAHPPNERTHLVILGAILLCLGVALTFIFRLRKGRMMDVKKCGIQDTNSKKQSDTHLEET
T1 sequence (Q9NZQ7 19-238): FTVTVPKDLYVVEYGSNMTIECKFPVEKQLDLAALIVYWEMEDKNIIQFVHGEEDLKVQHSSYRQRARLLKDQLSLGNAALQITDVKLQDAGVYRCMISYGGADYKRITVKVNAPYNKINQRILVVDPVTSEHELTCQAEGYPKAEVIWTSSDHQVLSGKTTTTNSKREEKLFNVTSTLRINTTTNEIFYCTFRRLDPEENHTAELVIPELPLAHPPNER

On to `Cc1c(-c2nc3c(Cl)cc(CNCCO)cn3n2)cccc1-c1cccc(NC(=O)c2ccc(CNCCO)cn2)c1Cl` [Compound 2, N-(2-chloro-3′-(8-chloro-6-((2-hydroxyethylamino)methyl)-[1,2,4]triazolo[1,5-a]pyridin-2-yl)-2′-methylbiphenyl-3-yl)-5-((2-hydroxyethylamino)methyl)picolinamide], for which the IC50 was less than 10 nM in experiment [1] and less than 100 nM in experiment [2]. Moreover, the EC50 in experiment [3] was less than 500 nM.
With `Cc1c(NC(=O)c2ccc(CNCCO)cn2)cccc1-c1cccc(NC(=O)c2ccc(CNCCO)cn2)c1Cl` [Compound 7, N,N′-(2-chloro-2′-methylbiphenyl-3,3′-diyl)bis(5-((2-hydroxyethylamino)methyl)picolinamide)], the half-inhibitory concentration (IC50) in experiment [1], in experiment [2] and in experiment [4] was less than 10 nM in each case. Also, the concentration for a half-maximal effect (EC50) in experiment [3] is less than 100 nM.
Regarding `Cc1c(NC(=O)c2ccc(CN3CCC(C(=O)O)CC3)cn2)cccc1-c1cccc(NC(=O)c2ccc(CN3CC[C@@H](O)C3)cn2)c1Cl` [Compound 8, (R)-1-((6-(2′-chloro-3′-(5-((3-hydroxypyrrolidin-1-yl)methyl)picolinamido)-2-methylbiphenyl-3-ylcarbamoyl)pyridin-3-yl)methyl)piperidine-4-carboxylic acid], the figures for the IC50 in experiment [1] and in experiment [2] were less than 10 nM and less than 100 nM, respectively. Moreover, in experiment [3], the half-maximal effective concentration (EC50) was less than 100 nM.
Consider `Cc1cc(C(=O)Nc2cccc(-c3cccc(NC(=O)c4ccc(CN5CCCC5)cn4)c3Cl)c2C)ncc1CN1CCCC[C@H]1C(=O)O` [Compound 9, (S)-1-((6-((2′-chloro-2-methyl-3′-(5-(pyrnolidin-1-ylmethyl)picolinamido)-[1,1′-biphenyl]-3-yl)carbamoyl)-4-methylpyridin-3-yl)methyl)piperidine-2-carboxylic acid], for which the IC50 in experiment [1] and in experiment [2] was less than 10 nM throughout. The EC50 in experiment [3] was less than 100 nM.
Regarding `Cc1c(Nc2nccc3cc(CN4CC[C@@H](O)C4)cnc23)cccc1-c1cccc(NC(=O)c2nc3c(n2C)CCN(CC[C@H]2CC[C@H](C(=O)O)CC2)C3)c1Cl` [Compound 10, trans 4-(2-(2-(2-chloro-3′-(3-(((R)-3-hydroxypyrrolidin-1-yl)methyl)-1,7-naphthyridin-8-ylamino)-2′-methylbiphenyl-3-ylcarbamoyl)-1-methyl-6,7-dihydro-1H-imidazo[4,5-c]pyridin-5(4H)-yl)ethyl)cyclohexanecarboxylic acid], the IC50 was less than 10 nM in experiment [1], less than 10 nM in experiment [2] and less than 100 nM in experiment [4]. Also, in experiment [3], the EC50 is less than 100 nM.
Consider `Cc1c(Nc2ncnc3cc(CN4CC[C@@H](O)C4)cnc23)cccc1-c1cccc(NC(=O)c2nc3c(n2C)CCN(C2CCC(C)(C(=O)O)CC2)C3)c1Cl` (stereo partly drawn) [Compound 12], for which the IC50 is less than 10 nM in experiment [1], less than 10 nM in experiment [2] and less than 100 nM in experiment [4]. In experiment [3], the EC50 was less than 100 nM.
With `Cc1c(NC(=O)c2nc3c(n2C)CCN(C[C@H]2CC[C@H](C(=O)O)CC2)C3)cccc1-c1cccc(NC(=O)c2nc3c(n2C)CCN(C)C3)c1Cl` [Compound 15, trans-4-((2-(2′-chloro-3′-(1,5-dimethyl-4,5,6,7-tetrahydro-1H-imidazo[4,5-c]pyfidine-2-caiboxamido)-2-methylbiphenyl-3-ylcarbamoyl)-1-methyl-6,7-dihydro-1H-imidazo[4,5-c]pyridin-5(4H)-yl)methyl)cyclohexane-1-carboxylic acid], the 50% inhibitory concentration (IC50) in experiment [1] was less than 10 nM; in experiment [2], less than 10 nM; in experiment [4] it was less than 500 nM. Further, the concentration giving a half-maximal response (EC50) in experiment [3] is less than 100 nM.
As to `Cc1c(NC(=O)c2nc3c(n2C)CCN(CC[C@H]2CC[C@H](C(=O)O)CC2)C3)cccc1-c1cccc(NC(=O)c2nc3c(n2C)CCN(C)C3)c1Cl` [Compound 16, trans-4-(2-(2-((2′-chloro-3′-(1,5-dimethyl-4,5,6,7-tetrahydro-1H-imidazo[4,5-c]pyfidine-2-caiboxamido)-2-methyl-[1,1′-biphenyl]-3-yl)caibamoyl)-1-methyl-1,4,6,7-tetrahydro-5H-imidazo[4,5-c]pyridin-5-yl)ethyl)cyclohexane-1-carboxylic acid], the results for the half-inhibitory concentration (IC50) in experiment [1], in experiment [2] and in experiment [4] were less than 10 nM, less than 10 nM and less than 100 nM, respectively. In addition, the concentration for a half-maximal effect (EC50) in experiment [3] was less than 100 nM.
With `Cc1c(NC(=O)c2nc3c(n2C)CCN(C[C@H]2CC[C@@H](C(=O)O)CC2)C3)cccc1-c1cccc(NC(=O)c2nc3c(n2C)CCN(C)C3)c1Cl` [Compound 17, cis-4-((2-((2′-chloro-3′-(1,5-dimethyl-4,5,6,7-tetrahydro-1H-imidazo[4,5-c]pyfidine-2-caiboxamido)-2-methyl-[1,1′-biphenyl]-3-yl)caibamoyl)-1-methyl-1,4,6,7-tetrahydro-5H-imidazo[4,5-c]pyridin-5-yl)methyl)cyclohexane-1-carboxylic acid], the IC50 is less than 10 nM in experiment [1], less than 10 nM in experiment [2] and less than 100 nM in experiment [4]. Also, the EC50 in experiment [3] is less than 100 nM.
Take `Cc1c(Nc2nc(C(F)F)nc3cc(CN4CC[C@@H](O)C4)cnc23)cccc1-c1cccc(-c2nc3cc(CN4CC[C@@](C)(C(=O)O)C4)cc(C#N)c3o2)c1C` [Compound 26, (R)-1-((7-cyano-2-(3′-(2-(difluoromethyl)-7-(((R)-3-hydroxypyrrolidin-1-yl)methyl)pyrido[3,2-d]pyrimidin-4-ylamino)-2,2′-dimethylbipheiryl-3-yl)benzo[d]oxazol-5-yl)methyl)-3-methylpyrrolidine-3-carboxylic acid]: the IC50 is less than 10 nM in experiment [1] and less than 100 nM in experiment [4]. In addition, the EC50 in experiment [3] was less than 100 nM.
